Experimental data reported in patent publication US20260273011A1, “COMPOSITION COMPRISING STEWARTIA PSEUDOCAMELLIA EXTRACT AS ACTIVE INGREDIENT FOR PREVENTION OR TREATMENT OF DEMENTIA” (priority 2022, published 2026).
Where two headings read alike, the source gives them in different places. Ends that are not written are not given here.

Legend:
[1] = test system: human neuroblastoma SH-SY5Y cells; conditions: H2O2 50 μM, 24 hours
Experimental: First, the cells were plated into a 96-well plate at a concentration of 5×10^3 cells/well, and then cultured for 24 hours at 95% humidity, 5% CO2, and 37° C. for stabilization. After removing the medium, 10 μl of H2O2 diluted with fresh medium was treated at each concentration, and the resulting mixture was allowed to react for 24 hours at 95% humidity, 5% CO2, and 37° C.
The viability of the cells was measured using the MTS (CellTiter 96® AQueous One Solution Cell Proliferation Assay, Promega, USA) reagent. In other words, 10 μl of the reagent was treated per well, and after a reaction at 37° C. for 60 minutes, the absorbance was measured at 490 nm using a microplate reader (Molecular Devices LLC, VersaMax ELISA Microplate Reader, USA).

[2] = test system: human neuroblastoma SH-SY5Y cells; experiment: Neuroprotective effect against Aβ-peptide 25-35 cytotoxicity (MTS); format: cell-based; design: dose or concentration left out as unconfirmed; conditions: Aβ treatment
Experimental: (§1) To measure the neuronal cell death concentration by Aβ 25-35, Aβ-protein fragment 25-35 (Sigma-Aldrich, A4559-1 MG) was purchased and used.
(§2) For the aggregation of Aβ, it was dissolved in distilled water and allowed to react at 37° C. for five days at 150 rpm.

[3] = test system: human neuroblastoma SH-SY5Y cells; experiment: Neuroprotective effect against H2O2 cytotoxicity (MTS); format: cell-based; conditions: 50 μM H2O2 treatment
Experimental: After removing the medium, […], which has a cell viability of about 50%, was treated with fresh medium, and then 10 μl of the samples of Examples 1 to 4 and Comparative Example 1 were treated at each concentration, and the resulting mixtures were allowed to react at 95% humidity, 5% CO2, and 37° C. for 24 hours.

[4] = test system: SH-SY5Y cells; experiment: ROS generation suppression ability in neurons (DCF-DA, H2O2); format: cell-based, human; conditions: ursolic acid 0.1 to 5 μg/ml
Experimental: The generation of ROS is measured by the intensity of fluorescent material generation using 2′,7′-dichlorofluorescin diacetate (DCF-DA), and the principle is that 2′,7′-dichlorofluorescin (DCF) in a reduced or acetylated form releases a fluorescent material ([…]) when the acetate group is removed by the […] and ROS generated within cells.
SH-SY5Y cells were plated into a 96-well plate (100 μl) at a concentration of 5×10^4 cells/well and cultured for 24 hours. After the culture, the medium was removed, and the sample was treated at an appropriate concentration using a medium containing no serum and then cultured for 24 hours. After 24 hours, 100 μl of PBS was added and the resulting mixture was washed, and this process was repeated three times. DCF-DA dissolved in dimethyl sulfoxide (DMSO) was diluted to 20 μM (in PBS), and 100 μl of the diluted solution was added and incubated for 20 minutes. After adding 100 μl of 100 μM H2O2 (in PBS), the mixture was allowed to react for 30 minutes, and the fluorescence intensity was measured at 486 nm and 535 nm using an enzyme-linked immunosorbent assay (ELISA) reader.

[5] = test system: human neuroblastoma SH-SY5Y cells; experiment: Human neuroblastoma SH-SY5Y cell toxicity (MTS); format: cell-based
Experimental: Neuronal cells (human neuroblastoma SH-SY5Y) were obtained from the Korean Cell Line Bank (KCLB, Seoul, Korea). The medium used was a minimum essential medium (SH30024.01, Cytiva, USA) containing 10% fetal bovine serum (FBS, Gibco, CA, USA) medium, 25 mM 4-(2-hydroxyethyl)-1-piperazine ethanesulfonic acid (HEPES), and 25 mM NaHCO3. The cells were cultured in an incubator controlled at 95% humidity, 5% CO2, and 37° C., and an antibiotic for the medium (penicillin-streptomycin, Gibco, CA, USA) was used to suppress microbial contamination or proliferation. When the cells covered about 80% of the dish, the dish was washed with phosphate-buffered saline-ethylenediaminetetraacetic acid (PBS-EDTA, Thermo Fisher Scientific, Massachusetts, USA), and then 1 ml of 0.05% trypsin-EDTA (Gibco, Thermo Fisher Scientific, Massachusetts, USA) was used to detach the cells attached to the bottom of the dish and subculture them. The medium was exchanged with fresh medium every 48 to 72 hours to culture the cells.
After removing the medium, 100 μl of the sample diluted with fresh medium was applied and allowed to react with the cells for 24 hours in an incubator at 95% humidity, 5% CO2, and 37° C.
In other words, 1 ml of the reagent was diluted with 9 ml of medium (DMEM high glucose, free FBS), and 100 μl of the mixture was added to each well.

[6] = test system: human neuroblastoma SH-SY5Y cells; experiment: Cell death concentration for Aβ-peptide 25-35 (MTS); format: cell-based; conditions: Aβ 20 μM, 24 hours
Experimental: as §1, §2

OO [Example H2O2, Hydrogen peroxide]
cell viability [1]: approximately 50%

C[C@H]1[C@H](C)CC[C@]2(C(=O)O)CC[C@]3(C)C(=CC[C@@H]4[C@@]5(C)CC[C@H](O)C(C)(C)[C@@H]5CC[C@]43C)[C@H]12 [ursolic acid]
neuroprotective effect against Aβ-peptide 25-35 cytotoxicity [2]: significant effect | neuroprotective effect against H2O2 cytotoxicity [3]: high cell protection efficacy | ROS generation suppression ability [4]: significant suppression activity | concentration at which toxicity on neurons was exhibited [5]: ≥ 10 µg/mL

GSNKGAIIGLM [Aβ, Aβ-protein fragment 25-35]
cell viability [6]: approximately 50%
